Source: PubChem BioAssay (NCI)
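Tested at 5 concentrations; 48 h exposure; 96-well plates; endpoints linearly interpolated, else capped at highest concentration. The concentration for full growth arrest is given as TGI.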

Key:
Assay in all cases: NCI-60 cell line screen, 48 h
SK-MEL-5 melanoma = system: SK-MEL-5 melanoma
NCI-H522 lung = system: NCI-H522 lung
UACC-257 melanoma = system: UACC-257 melanoma
MDA-N = system: MDA-N
HCC-2998 colon = system: HCC-2998 colon
NCI/ADR-RES ovarian = system: NCI/ADR-RES ovarian
NCI-H226 lung = system: NCI-H226 lung
TK-10 renal = system: TK-10 renal
SF-539 CNS = system: SF-539 CNS
RPMI-8226 leukemia = system: RPMI-8226 leukemia

COc1ccc2cc3c4cc5c(cc4cc[n+]3cc2c1OC)OCO5
TGI (SK-MEL-5 melanoma): 14.1 µM
TGI (NCI-H522 lung): 21.5 µM
TGI (UACC-257 melanoma): 30.4 µM
TGI (MDA-N): 28.5 µM
TGI (HCC-2998 colon): > 55.5 µM
TGI (NCI/ADR-RES ovarian): > 100 µM
TGI (NCI-H226 lung): > 100 µM
TGI (TK-10 renal): 83.2 µM
TGI (SF-539 CNS): > 58.5 µM
TGI (RPMI-8226 leukemia): 35.1 µM

O=c1c2cc3c(cc2[nH]c2ncccc12)OCO3
TGI (SK-MEL-5 melanoma): > 10 µM
TGI (NCI-H522 lung): > 10 µM
TGI (UACC-257 melanoma): > 10 µM
TGI (MDA-N): > 10 µM
TGI (HCC-2998 colon): > 10 µM
TGI (NCI/ADR-RES ovarian): > 10 µM
TGI (NCI-H226 lung): > 10 µM
TGI (TK-10 renal): > 10 µM
TGI (SF-539 CNS): > 10 µM
TGI (RPMI-8226 leukemia): > 10 µM

Cc1csc(-c2cn(C)c3c2C(=O)C(N)=CC3=O)n1
TGI (SK-MEL-5 melanoma): 3.27 µM
TGI (NCI-H522 lung): > 100 µM
TGI (UACC-257 melanoma): 32.6 µM
TGI (MDA-N): 45.2 µM
TGI (HCC-2998 colon): > 100 µM
TGI (NCI/ADR-RES ovarian): > 100 µM
TGI (NCI-H226 lung): > 80.1 µM
TGI (TK-10 renal): > 100 µM
TGI (SF-539 CNS): > 100 µM
TGI (RPMI-8226 leukemia): > 22.8 µM

Cc1cc2[nH]c3[nH]c(=O)[nH]c(=O)c3c2cc1C
TGI (SK-MEL-5 melanoma): > 100 µM
TGI (NCI-H522 lung): > 100 µM
TGI (UACC-257 melanoma): > 100 µM
TGI (MDA-N): > 100 µM
TGI (HCC-2998 colon): > 100 µM
TGI (NCI/ADR-RES ovarian): > 100 µM
TGI (NCI-H226 lung): > 100 µM
TGI (TK-10 renal): > 100 µM
TGI (SF-539 CNS): > 100 µM
TGI (RPMI-8226 leukemia): > 100 µM

CC1CC[C@@]2(OC1)OC1C[C@H]3[C@@H]4CC[C@H]5CC(OC6OC(CO)C(OC7OC(CO)C(O)C(O)C7OC7OC(CO)C(O)C(O)C7O)C(O)C6O)CCC5(C)[C@H]4CCC3(C)C1[C@@H]2C (stereo not given in full)
TGI (SK-MEL-5 melanoma): 13.5 µM
TGI (NCI-H522 lung): 5.19 µM
TGI (UACC-257 melanoma): 11.6 µM
TGI (MDA-N): 9.31 µM
TGI (HCC-2998 colon): 2.06 µM
TGI (NCI/ADR-RES ovarian): 13.8 µM
TGI (NCI-H226 lung): 3.37 µM
TGI (TK-10 renal): 5.36 µM
TGI (SF-539 CNS): 2.92 µM
TGI (RPMI-8226 leukemia): 6.96 µM

O=P(c1ccccc1)(c1ccccc1)N1O[C@@H](c2ccccc2)C=C[C@H]1c1ccccc1
TGI (SK-MEL-5 melanoma): 24.6 µM
TGI (NCI-H522 lung): 24.5 µM
TGI (UACC-257 melanoma): 26.3 µM
TGI (MDA-N): 12.7 µM
TGI (HCC-2998 colon): 27.5 µM
TGI (NCI/ADR-RES ovarian): 24 µM
TGI (NCI-H226 lung): 29.4 µM
TGI (TK-10 renal): 27.8 µM
TGI (SF-539 CNS): 33 µM
TGI (RPMI-8226 leukemia): 56.6 µM

CN(C)CCCN1C(=S)N(CCCN(C)C)c2c3cc(O)ccc3nc3c([N+](=O)[O-])ccc1c23
TGI (SK-MEL-5 melanoma): 12.1 µM
TGI (NCI-H522 lung): 9.93 µM
TGI (UACC-257 melanoma): 21.2 µM
TGI (MDA-N): 34.9 µM
TGI (HCC-2998 colon): 8.02 µM
TGI (NCI/ADR-RES ovarian): 22.4 µM
TGI (NCI-H226 lung): 13.7 µM
TGI (TK-10 renal): 29 µM
TGI (SF-539 CNS): 17.1 µM
TGI (RPMI-8226 leukemia): 15.5 µM

CC12CC(=O)C3C(C(=O)C1)C32C (stereo not given)
TGI (SK-MEL-5 melanoma): > 100 µM
TGI (NCI-H522 lung): > 100 µM
TGI (UACC-257 melanoma): > 100 µM
TGI (MDA-N): > 100 µM
TGI (HCC-2998 colon): > 100 µM
TGI (NCI/ADR-RES ovarian): > 100 µM
TGI (NCI-H226 lung): > 100 µM
TGI (TK-10 renal): > 100 µM
TGI (SF-539 CNS): > 100 µM
TGI (RPMI-8226 leukemia): > 100 µM

O=C1c2cc3c(cc2CC1Br)CCC3 (stereo not given)
TGI (SK-MEL-5 melanoma): 3.36 µM
TGI (NCI-H522 lung): 3 µM
TGI (UACC-257 melanoma): 5.1 µM
TGI (MDA-N): 3.48 µM
TGI (HCC-2998 colon): 13.4 µM
TGI (NCI/ADR-RES ovarian): 19.2 µM
TGI (NCI-H226 lung): 11.4 µM
TGI (TK-10 renal): 8.77 µM
TGI (SF-539 CNS): 4.2 µM
TGI (RPMI-8226 leukemia): 4.45 µM
